Drawing on patent publication US20090156577A1, “7-AMINO ALKYLIDENYL-HETEROCYCLIC QUINOLONES AND NAPHTHYRIDONES” (priority 2004, published 2009), this text covers MIC for 14 molecules.

Converted amounts (≈) assume the structure as drawn. Where a name gives a salt, the structure may show the parent alone. Read-outs that look alike come from different tables or passages of the source.

In this assay the test system is pathogenic bacteria. Nature of the assay: MIC by microdilution broth method (NCCLS M7-A4), in vitro antibacterial activity. The class given is cell-based. In short, it runs like this:
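Broth microdilution per NCCLS M7-A4: two-fold serial dilutions in cation-adjusted Mueller-Hinton broth, inoculum about 5×10^4 CFU/well. Trays incubated 16–20 h at 35 °C. MIC read by comparing growth against no-compound growth controls.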

Setting [1] is: Staphylococcus aureus, Organism A: Staphylococcus aureus OC4172.
[2] abbreviates: Streptococcus pneumoniae, ATCC49619, Organism E: Streptococcus pneumoniae ATCC 49619.
Setting [3] is: Streptococcus pneumoniae, Organism B: fluoroquinolone-resistant clinical isolate of Streptococcus pneumoniae (QRDR amino acid substitutions).
The mark [4] stands for this setting: Streptococcus pneumoniae, Organism C: fluoroquinolone-resistant clinical isolate of Streptococcus pneumoniae (QRDR amino acid substitutions).
[5] abbreviates: Streptococcus pneumoniae, Organism D: fluoroquinolone-resistant clinical isolate of Streptococcus pneumoniae (QRDR amino acid substitutions).
The mark [6] stands for this setting: Staphylococcus aureus, Organism A: Staphylococcus aureus OC4172, read-out: MIC.
The mark [7] stands for this setting: Streptococcus pneumoniae, ATCC49619, Organism E: Streptococcus pneumoniae ATCC 49619, read-out: MIC.

Consider `CN(C)CC(Cl)=C1CCN(c2cc3c(cc2F)c(=O)c(C(=O)O)cn3C2CC2)CC1` [Compound 298, 7-[4-(1-Chloro-2-dimethylamino-ethylidene)-piperidin-1-yl]-1-cyclopropyl-6-fluoro-4-oxo-1,4-dihydro-quinoline-3-carboxylic Acid Trifluoroacetic Acid Salt], for which 0.25 mg/L was the least that counted as inhibitory under setting [1] (MIC); the MIC under setting [2] is 1 mg/L; 16 mg/L was the least that counted as inhibitory under setting [3] (MIC); the minimum inhibitory concentration (MIC) under setting [4] stood at 16 mg/L; the MIC under setting [5] worked out at 8 mg/L.

Take `CN(C)CC(F)=C1CCN(c2cc3c(cc2F)c(=O)c(C(=O)O)cn3C2CC2)CC1` [Compound 299, 1-Cyclopropyl-7-[4-(2-dimethylamino-1-fluoro-ethylidene)-piperidin-1-yl]-6-fluoro-4-oxo-1,4-dihydro-quinoline-3-carboxylic acid]: the MIC was 0.5 mg/L (≈ 1.2 µM) under setting [6]; 1 mg/L (≈ 2.4 µM) under setting [7]; 16 mg/L (≈ 38.3 µM) under setting [3]; above 16 mg/L under setting [4]; 2 mg/L (≈ 4.79 µM) under setting [5].

Take `O=C(O)c1cn(C2CC2)c2cc(N3CCC(=C(Cl)CN4CCCCC4)CC3)c(F)cc2c1=O` [Compound 300, 7-[4-(1-Chloro-2-piperidin-1-yl-ethylidene)-piperidin-1-yl]-1-cyclopropyl-6-fluoro-4-oxo-1,4-dihydro-quinoline-3-carboxylic acid]: the minimal inhibitory concentration (MIC) reads like this: under setting [6], 0.5 mg/L (≈ 1.05 µM); under setting [7], 2 mg/L (≈ 4.22 µM); under setting [3], above 16 mg/L; under setting [4], above 16 mg/L; under setting [5], 2 mg/L (≈ 4.22 µM).

On to `C/C(CN)=C1\CCCN(c2cc3c(cc2F)c(=O)c(C(=O)O)cn3C2CC2)C1` [Compound 301, (Z)-7-[3-(2-Amino-1-methyl-ethylidene)-piperidin-1-yl]-1-cyclopropyl-6-fluoro-4-oxo-1,4-dihydro-quinoline-3-carboxylic acid], for which the MIC reads like this: under setting [6], 0.12 mg/L (≈ 0.311 µM); under setting [7], 0.25 mg/L (≈ 0.649 µM); under setting [3], 8 mg/L (≈ 20.8 µM); under setting [4], 8 mg/L (≈ 20.8 µM); under setting [5], 8 mg/L (≈ 20.8 µM).

For `COc1c(N2CCC/C(=C(\C)CN)C2)c(F)cc2c(=O)c(C(=O)O)cn(C3CC3)c12` [Compound 302, (Z)-7-[3-(2-Amino-1-methyl-ethylidene)-piperidin-1-yl]-1-cyclopropyl-6-fluoro-8-methoxy-4-oxo-1,4-dihydro-quinoline-3-carboxylic acid], the MIC reads like this: under setting [6], at most 0.03 mg/L; under setting [7], at most 0.12 mg/L; under setting [3], 1 mg/L (≈ 2.41 µM); under setting [4], at most 0.5 mg/L; under setting [5], 1 mg/L (≈ 2.41 µM).

For the molecule `COc1c(N2CCC/C(=C(\F)CN)C2)c(F)cc2c(=O)c(C(=O)O)cn(C3CC3)c12` [Compound 303, (E)-7-[3-(2-Amino-1-fluoro-ethylidene)-piperidin-1-yl]-1-cyclopropyl-6-fluoro-8-methoxy-4-oxo-1,4-dihydro-quinoline-3-carboxylic Acid Trifluoroacetic Acid Salt], the MIC was at most 0.015 mg/L under setting [6]; 0.03 mg/L under setting [7]; 0.25 mg/L under setting [3]; 0.12 mg/L under setting [4]; 0.25 mg/L under setting [5].

Consider `COc1c(N2CC(=C(Cl)CO)C2)c(F)cc2c(=O)c(C(=O)O)cn(C3CC3)c12` [Compound 356, 7-[3-(1-Chloro-2-hydroxy-ethylidene)-azetidin-1-yl]-1-cyclopropyl-6-fluoro-8-methoxy-4-oxo-1,4-dihydro-quinoline-3-carboxylic Acid], for which the MIC was 0.06 mg/L (≈ 0.147 µM) under setting [6]; 0.5 mg/L (≈ 1.22 µM) under setting [7]; at most 4 mg/L under setting [3]; above 16 mg/L under setting [4]; 8 mg/L (≈ 19.6 µM) under setting [5].

`O=C(O)c1cn(C2CC2)c2nc(N3CC(=C(Cl)CO)C3)c(F)cc2c1=O` [Compound 357, 7-[3-(1-Chloro-2-hydroxy-ethylidene)-azetidin-1-yl]-1-cyclopropyl-6-fluoro-4-oxo-1,4-dihydro-[1,8]naphthyridine-3-carboxylic Acid]: the MIC was 0.25 mg/L (≈ 0.658 µM) under setting [6]; 1 mg/L (≈ 2.63 µM) under setting [7]; 8 mg/L (≈ 21.1 µM) under setting [3]; 16 mg/L (≈ 42.1 µM) under setting [4]; 4 mg/L (≈ 10.5 µM) under setting [5].

In the case of `NC/C(F)=C1/CCCN(c2c(F)cc3c(=O)c(C(=O)O)cn(-c4nc(N)c(F)cc4F)c3c2Cl)C1` [Compound 358, (E)-1-(6-Amino-3,5-difluoro-pyridin-2-yl)-7-[3-(2-amino-1-fluoro-ethylidene)-piperidin-1-yl]-8-chloro-6-fluoro-4-oxo-1,4-dihydro-quinoline-3-carboxylic Acid Trifluoroacetate], the MIC runs as follows: under setting [1], 0.12 mg/L; under setting [2], 0.5 mg/L; under setting [3], 16 mg/L; under setting [4], 8 mg/L; under setting [5], 16 mg/L.

`Nc1nc(-n2cc(C(=O)O)c(=O)c3cc(F)c(N4CCC/C(=C(/F)CO)C4)c(Cl)c32)c(F)cc1F` [Compound 359, (Z)-1-(6-Amino-3,5-difluoro-pyridin-2-yl)-8-chloro-6-fluoro-7-[3-(1-fluoro-2-hydroxy-ethylidene)-piperidin-1-yl]-4-oxo-1,4-dihydroquinoline-3-carboxylic Acid Trifluoroacetate] had an MIC under setting [1] of 0.12 mg/L, a minimum inhibitory concentration (MIC) under setting [2] of 1 mg/L, an MIC under setting [4] of 8 mg/L and an MIC under setting [5] of 16 mg/L.

`CNCC(Cl)=C1CN(c2c(F)cc3c(=O)c(C(=O)O)cn(-c4nc(N)c(F)cc4F)c3c2Cl)C1` [Compound 360, 1-(6-Amino-3,5-difluoro-pyridin-2-yl)-8-chloro-7-[3-(1-chloro-2-methylamino-ethylidene)-azetidin-1-yl]-6-fluoro-4-oxo-1,4-dihydro-quinoline-3-carboxylic Acid]: the minimum inhibitory concentration (MIC) runs as follows: under setting [6], 0.06 mg/L (≈ 0.117 µM); under setting [7], 0.5 mg/L (≈ 0.972 µM); under setting [3], 16 mg/L (≈ 31.1 µM); under setting [4], 8 mg/L (≈ 15.6 µM); under setting [5], 8 mg/L (≈ 15.6 µM).

For `Nc1nc(-n2cc(C(=O)O)c(=O)c3cc(F)c(N4CC(=C(Cl)CO)C4)c(Cl)c32)c(F)cc1F` [Compound 361, 1-(6-Amino-3,5-difluoro-pyridin-2-yl)-8-chloro-7-[3-(1-chloro-2-hydroxy-ethylidene)-azetidin-1-yl]-6-fluoro-4-oxo-1,4-dihydro-quinoline-3-carboxylic acid], the minimum inhibitory concentration (MIC) is at most 0.015 mg/L under setting [6]; at most 0.015 mg/L under setting [7]; 0.12 mg/L (≈ 0.239 µM) under setting [3]; 0.12 mg/L (≈ 0.239 µM) under setting [4]; 0.06 mg/L (≈ 0.12 µM) under setting [5].

For `C[C@H]1COc2c(N3CC(=C(Cl)CO)C3)c(F)cc3c(=O)c(C(=O)O)cn1c23` [Compound 362, (S)-9-[3-(1-Chloro-2-hydroxy-ethylidene)-azetidin-1-yl]-8-fluoro-3-methyl-6-oxo-2,3-dihydro-6H-1-oxa-3a-aza-phenalene-5-carboxylic Acid], the MIC runs as follows: under setting [6], 0.03 mg/L (≈ 0.076 µM); under setting [7], 0.5 mg/L (≈ 1.27 µM); under setting [3], 8 mg/L (≈ 20.3 µM); under setting [4], above 16 mg/L; under setting [5], 8 mg/L (≈ 20.3 µM).

For the molecule `COc1c(N2CC(=C(Cl)CO)C2)c(F)cc2c(=O)c(C(=O)O)cn([C@@H]3C[C@@H]3F)c12` [Compound 363, 7-[3-(1-Chloro-2-hydroxy-ethylidene)-azetidin-1-yl]-6-fluoro-(1R,2S)-1-(2-fluoro-cyclopropyl)-8-methoxy-4-oxo-1,4-dihydro-quinoline-3-carboxylic Acid], the minimal inhibitory concentration (MIC) by setting is: under setting [6], 0.03 mg/L (≈ 0.0703 µM); under setting [7], 0.5 mg/L (≈ 1.17 µM); under setting [3], 4 mg/L (≈ 9.37 µM); under setting [4], above 16 mg/L; under setting [5], 16 mg/L (≈ 37.5 µM).
